# Results: patent US10111871B2, “Nanoparticle drug delivery system and method of treating cancer and neurotrauma” (Northeastern University, priority 2013, dated 2018)
# What was measured:
# [1] = tested on: PC3; test: Synergism with irradiation, combination index by CalcuSyn; format: cell-based, human; conditions: PC3, 20 μM with irradiation
# Protocol: Determination of Synergism using CalcuSyn: The fraction of cells affected (Fa) in response to Olaparib and Nanoolaparib treatment was determined as discussed in above sections. The fraction of cells affected by irradiation alone and the combination therapy was determined by the delayed cell viability assay and these values were utilized to perform synergyism analysis. A non-constant ratio combination design as formulated by CalcuSyn (Biosoft) based on the Chou-Talalay isobologram equation was used to calculate the Combination index (44). All the cells were exposed to 20 μM Olaparib or NanoOlaparib with increasing doses of Irradiation. The CI values were generated from isobolograms. All assays were performed in duplicates. Bars represent the Combination index (CI) of Olaparib and Nanoolaparib on LNCaP, PC3 and FKO1 in combinations with irradiation. The CI values generated for all the treatment groups are reported in the bar graphs are derived from duplicate experiments. The extent of synergism is postulated as indicated by the Chou-Talalay method.
# [2] = tested on: FKO1; test: Delayed viability assay after radiosensitization (modified clonogenic assay); format: cell-based, mouse
# Protocol: (§1) In vitro characterization of NanoOlaparib: For in vitro studies we used PTEN deficient human prostate cancer cell lines PC3 (ATCC), LNCaP (ATCC) and mouse cell line FKO1. […] Briefly, a complete media was formulated by adding 10% Fetal Bovine Serum from HyClone (FBS) to F12-k (PC3), RPMI (LNCaP) and DMEM supplemented with growth factors such as Bovine Pituitary Extract, (Life Technologies cat #: 13028014), final conc. 25ug/ml, Insulin, (Sigma Aldrich Cat#:16634-50 mg), final conc. 5ug/ml, EGF (Life Technologies Cat#:PHG0311), final conc 6 ng/ml (FKO1). The FKO1 cells were grown on collagen-coated plates (VWR Cat#: 47743-656). CellTiter-Glo® luminescent cell viability reagent was ordered from Promega, CA Cat # G7570. Clonogenic assay kit was bought from BioPioneer, CA, Cat # CODE: CA-001.
# (§2) Irradiation for in vitro studies: Radiation was delivered using the Small Animal Radiation Research Platform (SARRP) at DFCI, a gantry mounted x-ray tube and flat panel imager capable of fixed field irradiation, rotation therapy and cone-beam CT (CBCT) imaging. […] Here the radiation doses were optimized to 2 Gy (5.6 Gy/min for 22 sec) and 4 Gy (5.5 Gy/min for 44 sec) to irradiate the cells, which were pretreated with Olaparib/NanoOlaparib for 24 hrs.
# (§3) Delayed viability assay after radiosensitization: Based on several studies, we modified the general clonogenic assay protocol to determine the long term effects of radio-sensitization with olaparib and NanoOlaparib (42, 43). The percent cell viability was determined using the modified clonogenic assay at 2 Gy and 4 Gy doses. Irradiation was carried out in prostate cancer cell lines, LNCaP PC3 and FKO1 as described above. […] The cell density was determined using automated cell counter and 10,000 and 20,000 cells from each treatment group was calculated and seeded in fresh 6 well plates. […] The stain was then dissolved in acetic acid to quantify the effect of Olaparib and NanoOlaparib treatments for all the cell lines.
# [3] = tested on: PC3; test: as above; format: cell-based, human
# Protocol: as §1, with “Clonogenic assay kit was bought from BioPioneer, CA, Cat # CODE: CA-001.” left out
# as §3, with “doses.” for “doses. Irradiation was carried out in prostate cancer cell lines, LNCaP PC3 and FKO1 as described above.”
# [4] = tested on: PC3 cells; test: Nuclear PARP cleavage assay by confocal microscopy; format: cell-based, human; conditions: PC3, DAPI
# Text: as §2
# (§4) Nuclear localization and early DNA damage determination: To assess the early DNA Damage and PARP inhibition pathway damage, including PARP, PARylation, PARP cleavage and yH2AX in the cell lines to various treatment conditions, the prostate cancer cell lines were seeded at 100,000 cells, exposed to 20 μM Olaparib/NanoOlaparib, with and without radiation for both immunoflorescence (confocal) and western blotting assays. PARP-1 is a 116 kDa nuclear protein which is strongly activated by DNA strand breaks. During apoptosis, proteins such as caspase-3 and -7, cleave the PARP to yield an 85 kDa and a 25 kDa fragment. The nuclear localization and extent of apoptosis was determined using nuclear PARP cleavage assay and western blotting was used to determine the relative cellular concentrations of PARP, PAR, and yH2AX for various treatments on all the cell lines. Briefly, 105 cells/well were seeded in a 6 well plate on sterile coverslips for 24 hours before adding the drugs. The cells were incubated with the drugs for either 4 hr s after which they were irradiated. The cells thus treated were incubated at 37° C. for 1 hour before fixing them for further analysis.
# (§5) Nuclear PARP Cleavage assay using confocal microscopy: The cells were fixed with 1% formalin and kept at 37° C. for 15 min. The coverslips were given three PBS washings (3 min each) until the cells were free of fixing agent. The cells were rehydrated using PBS with 0.5% tween 80 for 30 min, washed with buffer and incubated with Anti-PARP Cleavage Site (214/215) specific antibody, FITC Conjugate (Life technologies, NY, Cat #44-699) for 1 hour. This antibody specifically recognizes the 85 kDa fragment of cleaved PARP and can be used as a marker for detecting apoptotic cells. The coverslips were washed twice and were mounted onto the glass slide using and the edges were sealed using nail polish. The images were taken using an Olympus FV1000, multi-photon confocal microscope (Olympus America, Inc., Central Valley, Calif.). The excitation filters used for imaging cleaved PARP (FITC) and DAPI were Ex-488, 405 respectively. The emission filters were set at 530, 458 nm for FITC and DAPI respectively. All the images were captured with a 60× objective. […] Statistical significance was analyzed using two way ANOVA and Dunnet's multiple comparison tests in Graph Pad Prism.
# [5] = tested on: LNCaP cells; test: Nuclear PARP cleavage assay by confocal microscopy; format: cell-based, human
# Text: as §2, §4, §5
# [6] = tested on: FKO1 cells; test: Nuclear PARP cleavage assay by confocal microscopy; format: cell-based, mouse; conditions: FKO1, DAPI
# Text: as §2
# Nuclear localization and early DNA damage determination: To assess the early DNA Damage and PARP inhibition pathway damage, including PARP, PARylation, PARP cleavage and yH2AX in the cell lines to various treatment conditions, the prostate cancer cell lines were seeded at 100,000 cells, exposed to 20 μM Olaparib/NanoOlaparib, with and without radiation for both immunoflorescence (confocal) and western blotting assays. […] The nuclear localization and extent of apoptosis was determined using nuclear PARP cleavage assay and western blotting was used to determine the relative cellular concentrations of PARP, PAR, and yH2AX for various treatments on all the cell lines. […]
# Nuclear PARP Cleavage assay using confocal microscopy: The cells were fixed with 1% formalin and kept at 37° C. for 15 min. […] Statistical significance was analyzed using two way ANOVA and Dunnet's multiple comparison tests in Graph Pad Prism.
# [7] = HPLC analysis of encapsulated Olaparib (loading efficiency); format: physicochemical; conditions: across the batches
# Protocol: HPLC analysis: The concentration of Olaparib encapsulated was determined using HPLC. The mobile phase was optimized to be methanol: water (64:36) run on a reverse phase C18 column (SUPELCO™), and the Olaparib was detected at 207 nm. All the doses used in the following studies were derived from the standard curve obtained using a working range of serially diluted Olaparib solutions in mobile phases as described above. The loading efficiency across the batches was around 80-90%.
structure (smiles),measurement,setting,value
"O=C(c1cc(Cc2n[nH]c(=O)c3ccccc23)ccc1F)N1CCN(C(=O)C2CC2)CC1 [Olaparib, 4-(3-(1-(cyclopropanecarbonyl)piperazine-4-carbonyl)-4-fluorobenzyl)phthalazin-1(2H)-one]",combinatorial effect of drug and irradiation (CI),[1],additive effect
same,cell kill,"[2]; FKO1, 20 uM combined with 4 Gy radiation",82%
same,cell death,"[2]; FKO1, 20 uM with 2 Gy",68%
same,"cell death, monotherapy","[2]; FKO1, 20 uM, no irradiation",53%
same,cell death,"[3]; PC3, 20 uM with 2 Gy",80%
same,"cell death, monotherapy","[3]; PC3, 20 uM, no irradiation",78%
same,change in nuclear size,[4],No significant change
same,location of cleaved PARP,[5]; 1 hr post irradiation,predominantly found in the perinuclear region
same,increase in nuclear area,"[5]; DAPI, 20 μM",3 fold
same,increase in cleaved PARP upon monotherapy,"[5]; no irradiation, 20 μM",20 fold
same,change in nuclear size,[6],No significant change
same,loading efficiency,[7],80-90%
